Converted amounts (≈) assume the structure as drawn. Where two headings read alike, the source gives them in different places.
Key:
[1] = system: MSSA (Methicillin-susceptible Staphylococcus aureus); assay: Minimum inhibitory concentration (broth microdilution) and FIC index; format: cell-based
Experimental: (§1) A serial of twofold dilution of the tested antibiotics (oxacillin, erythromycin, ampicillin, kanamycin, levofoxacin, vancomycin and doxycycline) was perform by Broth microdilution method to a final concentration of 2-512 μg/mL. The bacterial overnight culture was collected and re-suspended in the Muller-Hilton (M-H) broth. An aliquot of cell suspension (OD600=0.1) was prepared. The bacterial suspensions were plated in 96-well plate and incubated with test antibiotics at 37° C. in a 5% CO2 incubator (Table 1 to Table 4).
(§2) The […], […] and antagonism between two drugs was evaluated by the following formula:
(§3) [formula] The criteria of fractional inhibitory concentration index: […]

[2] = system: MRSA 19615; assay: Time-killing curve; format: cell-based, Staphylococcus aureus; conditions: 5 μg/mL alone
Experimental: MRSA 19615 bacteria were cultured overnight, collected and re-suspended in 25 mL MHB containing TGII and antibiotics of the indicated final concentration. To dilute the samples, samples were taken from the suspension at indicated time interval and mixed with filtered PBS, followed by spreading the diluted sample on MHA plated for two plates/each time point. Colony counts between 150 and 500 colonies in first time point was used to determine the dilution fold. Time-killing curves were calculated from colony counting and data analyzing was performed after overnight culture. Bacterial time-kill curves were constructed by plotting mean colony counts (log10 cfu/mL) versus time (FIGS. 4 and 5).

[3] = system: Staphylococcus aureus (MSSA and MRSA strains); assay: Synergy of antibiotics with Tellimagrandin II (text summary of Tables 1 to 4); format: cell-based; conditions: Table 2
Experimental: as §1, §2, §3

[4] = system: MRSA 18271; assay: Minimum inhibitory concentration (broth microdilution) and FIC index; format: cell-based, Staphylococcus aureus
Experimental: as §1, §2, §3

[5] = system: MRSA 18631; assay: as above; format: cell-based, Staphylococcus aureus
Experimental: as §1, §2, §3

[6] = system: MRSA 19615; assay: as above; format: cell-based, Staphylococcus aureus
Experimental: as §1, §2, §3

[7] = system: 14 clinical isolated MRSA strains; assay: MIC and FIC index of oxacillin with Tellimagrandin II, clinical isolates; format: cell-based; conditions: Staphylococcus aureus
Experimental: 14 clinical isolated MRSA strains were tested with oxacillin and Tellimagrandin II (40 μg/mL) and the FIC index was calculated.
as §1, §2, §3

[8] = system: standard MRSA strain (ATCC 33591); assay: Minimum inhibitory concentration (broth microdilution); format: cell-based, Staphylococcus aureus; conditions: Staphylococcus aureus, Table 1
Experimental: as §1

[9] = Table 3, MSSA, Tellimagrandin II (40 μg/ml) +
[10] = Table 3, 18271, Tellimagrandin II (40 μg/ml) +
[11] = Table 3, 18631, Tellimagrandin II (40 μg/ml) +
[12] = Table 3, 19615, Tellimagrandin II (40 μg/ml) +

Question: How did the MIC ([1]; Staphylococcus aureus, MSSA, Table 1, MSSA, read-out: Minimum inhibitory concentration) turn out when `Cc1onc(-c2ccccc2)c1C(=O)N[C@@H]1C(=O)N2[C@@H]1SC(C)(C)[C@@H]2C(=O)O` [Oxacillin] was run?
Answer: 4 µg/mL

Question: And the MIC ([1]; Staphylococcus aureus, MSSA, Table 2, Non-drug resistant Staphylococcus aureus, with TG II 30 μg/mL, read-out: MIC)?
Answer: < 2 µg/mL

Question: And the MIC ([1]; Staphylococcus aureus, MSSA, Table 2, Non-drug resistant Staphylococcus aureus, with TG II 40 μg/mL, read-out: MIC)?
Answer: < 2 µg/mL

Question: What about the MIC ([1]; Staphylococcus aureus, MSSA, Table 2, Non-drug resistant Staphylococcus aureus, without TG II, read-out: MIC) of the same compound?
Answer: 4 µg/mL

Question: And the MIC ([1]; Staphylococcus aureus, MSSA, Table 3, MSSA, Tellimagrandin II (40 μg/ml) −, read-out: MIC)?
Answer: 4 µg/mL

Question: What about the FIC ([1]; Table 2, Non-drug resistant Staphylococcus aureus, with TG II 30 μg/mL) of the same compound?
Answer: 0.5

Question: What about the FIC ([1]; Table 2, Non-drug resistant Staphylococcus aureus, with TG II 40 μg/mL) of the same compound?
Answer: 0.5

Question: What about the FIC [1, 9] of the same compound?
Answer: 0.5

Question: And the MIC [1, 9]?
Answer: 2 µg/mL

Question: And the “bacterial growth, time-killing curve” value [2]?
Answer: failed to inhibit bacterial growth

Question: What about the “effect of antibiotic with Tellimagrandin II” value [3] of the same compound?
Answer: synergistic effect

Question: And the MIC ([4]; Staphylococcus aureus, MRSA, Table 1, MRSA 18271, read-out: Minimum inhibitory concentration)?
Answer: > 512 µg/mL

Question: What about the MIC ([4]; Staphylococcus aureus, MRSA, Table 2, 18271, with TG II 30 μg/mL, read-out: MIC) of the same compound?
Answer: 32 µg/mL

Question: What about the MIC ([4]; Staphylococcus aureus, MRSA, Table 2, 18271, with TG II 40 μg/mL, read-out: MIC) of the same compound?
Answer: 16 µg/mL

Question: What about the MIC ([4]; Staphylococcus aureus, MRSA, Table 2, 18271, without TG II, read-out: MIC) of the same compound?
Answer: 512 µg/mL

Question: And the MIC ([4]; Staphylococcus aureus, MRSA, Table 3, 18271, Tellimagrandin II (40 μg/ml) −, read-out: MIC)?
Answer: 512 µg/mL

Question: And the FIC ([4]; Table 2, 18271, with TG II 30 μg/mL)?
Answer: 0.0063

Question: And the FIC ([4]; Table 2, 18271, with TG II 40 μg/mL)?
Answer: 0.0031

Question: What about the FIC [4, 10] of the same compound?
Answer: 0.031

Question: And the MIC [4, 10]?
Answer: 16 µg/mL

Question: What about the MIC ([5]; Staphylococcus aureus, MRSA, Table 1, MRSA 18631, read-out: Minimum inhibitory concentration) of the same compound?
Answer: > 512 µg/mL

Question: And the MIC ([5]; Staphylococcus aureus, MRSA, Table 2, 18631, with TG II 30 μg/mL, read-out: MIC)?
Answer: 64 µg/mL

Question: And the MIC ([5]; Staphylococcus aureus, MRSA, Table 2, 18631, with TG II 40 μg/mL, read-out: MIC)?
Answer: 8 µg/mL

Question: What about the MIC ([5]; Staphylococcus aureus, MRSA, Table 2, 18631, without TG II, read-out: MIC) of the same compound?
Answer: 512 µg/mL

Question: And the MIC ([5]; Staphylococcus aureus, MRSA, Table 3, 18631, Tellimagrandin II (40 μg/ml) −, read-out: MIC)?
Answer: 512 µg/mL

Question: What about the FIC ([5]; Table 2, 18631, with TG II 30 μg/mL) of the same compound?
Answer: 0.125

Question: What about the FIC ([5]; Table 2, 18631, with TG II 40 μg/mL) of the same compound?
Answer: 0.016

Question: What about the FIC [5, 11] of the same compound?
Answer: 0.016

Question: And the MIC [5, 11]?
Answer: 8 µg/mL

Question: What about the MIC ([6]; Staphylococcus aureus, MRSA, Table 1, MRSA 19615, read-out: Minimum inhibitory concentration) of the same compound?
Answer: 512 µg/mL

Question: And the MIC ([6]; Staphylococcus aureus, MRSA, Table 2, 19615, with TG II 30 μg/mL, read-out: MIC)?
Answer: < 2 µg/mL

Question: And the MIC ([6]; Staphylococcus aureus, MRSA, Table 2, 19615, with TG II 40 μg/mL, read-out: MIC)?
Answer: 4 µg/mL

Question: And the MIC ([6]; Staphylococcus aureus, MRSA, Table 2, 19615, without TG II, read-out: MIC)?
Answer: 512 µg/mL

Question: And the MIC ([6]; Staphylococcus aureus, MRSA, Table 3, 19615, Tellimagrandin II (40 μg/ml) −, read-out: MIC)?
Answer: 512 µg/mL

Question: What about the FIC ([6]; Table 2, 19615, with TG II 30 μg/mL) of the same compound?
Answer: 0.004

Question: What about the FIC ([6]; Table 2, 19615, with TG II 40 μg/mL) of the same compound?
Answer: 0.008

Question: What about the FIC [6, 12] of the same compound?
Answer: 0.008

Question: What about the MIC [6, 12] of the same compound?
Answer: 4 µg/mL

Question: And the MIC ([7]; MRSA 1, oxacillin alone)?
Answer: 512 µg/mL

Question: What about the MIC ([7]; MRSA 2, oxacillin alone) of the same compound?
Answer: 512 µg/mL

Question: And the MIC ([7]; MRSA 3, oxacillin alone)?
Answer: 512 µg/mL

Question: What about the MIC ([7]; MRSA 4, oxacillin alone) of the same compound?
Answer: 512 µg/mL

Question: What about the MIC ([7]; MRSA 5, oxacillin alone) of the same compound?
Answer: 512 µg/mL

Question: What about the MIC ([7]; MRSA 6, oxacillin alone) of the same compound?
Answer: 256 µg/mL

Question: And the MIC ([7]; MRSA 7, oxacillin alone)?
Answer: 256 µg/mL

Question: And the MIC ([7]; MRSA 8, oxacillin alone)?
Answer: 128 µg/mL

Question: And the MIC ([7]; MRSA 9, oxacillin alone)?
Answer: 128 µg/mL

Question: And the MIC ([7]; MRSA 10, oxacillin alone)?
Answer: 64 µg/mL

Question: And the MIC ([7]; MRSA 11, oxacillin alone)?
Answer: 64 µg/mL

Question: And the MIC ([7]; MRSA 12, oxacillin alone)?
Answer: 64 µg/mL

Question: And the MIC ([7]; MRSA 13, oxacillin alone)?
Answer: 64 µg/mL

Question: And the MIC ([7]; MRSA 14, oxacillin alone)?
Answer: 32 µg/mL

Question: And the MIC [8]?
Answer: 512 µg/mL (≈ 1280 µM)
